Assay results from patent US4507313A, “Oxadiazolyl-imidazo-[1,4]benzodiazepines and their use in treatment of diseases of the central nervous system” (A/S Ferrosan, priority 1982, dated 1985).

How the values were obtained:
[1] = biological target: benzodiazepine receptors; test: Displacement of 3H-flunitrazepam binding in vitro (rat forebrain membrane suspension); conditions: 3H-flunitrazepam 1.0 nM, 0° C., 25 mM KH2PO4 pH 7.1, rat forebrain, 40-60 min
[2] = system: benzodiazepine receptors; test: Inhibition of 3H-flunitrazepam binding to benzodiazepine receptors in living brain, in vivo; conditions: mice, usually subcutaneous; 3H-flunitrazepam i.v. 15 min later, killed after further 20 min; 50% reduction of specific binding
Description: The ED50 value represents the dose (mg/kg) of a test substance which causes the specific binding of flunitrazepam to benzodiazepine receptors in a living brain to be reduced to 50% of the control value. Such an in vivo test is carried out as follows:
Groups of mice are injected with the test substance at different doses and usually subcutaneously. 15 minutes later, ^3 H-flunitrazepam is given intravenously to the mice and after a further 20 minutes, the mice are killed, their […] by scintillation counting. The ED50 value is determined from dose-response curves.

Row | SMILES | Inhibition of 3H-flunitrazepam-binding in vitro IC50 [1] [ng/mL] | Inhibition of 3H-flunitrazepam-binding in vivo ED50 [2] [mg/kg]
1 | CCc1noc(-c2ncn3c2CN(C)C(=O)c2ccccc2-3)n1 [3-[5-(3-ethyl-1,2,4-oxadiazole)-yl]-5,6-dihydro-5-methyl-6-oxo-4H-imidazo[1,5-a][1,4]benzodiazepine] | 12 | 2.2
2 | CCc1noc(-c2ncn3c2CN(C)C(=O)c2cc(F)ccc2-3)n1 [5,6-dihydro-3-[5-(3-ethyl-1,2,4-oxadiazole)-yl]-8-fluoro-5-methyl-6-oxo-4H-imidazo[1,5-a][1,4]benzodiazepine] | 3.5 | 4.5
3 | CCc1noc(-c2ncn3c2CN(C)C(=O)c2cc(Cl)ccc2-3)n1 [8-chloro-5,6-dihydro-3-[5-(3-ethyl-1,2,4-oxadiazole)-yl]-5-methyl-6-oxo-4H-imidazo[1,5-a][1,4]benzodiazepine] | > 10 | 5.9
4 | CCOC(=O)c1ncn2c1CN(C)C(=O)c1ccccc1-2 [ethyl-5,6-dihydro-5-methyl-6-oxo-4H--imidazo[1,5-a][1,4]benzodiazepine-3-carboxylate, reference compound] |  | > 30
5 | CCOC(=O)c1ncn2c1CN(C)C(=O)c1cc(Cl)ccc1-2 [ethyl-8-chloro-5,6-dihydro-5-methyl-6-oxo-4H--imidazo[1,5-a][1,4]benzodiazepine-3-carboxylate, reference compound] | 7.9 | > 30
